Assay results published in patent US20080089860A1, “Therapeutic compositions and methods useful in treating cancer” (priority 2006, published 2008).

How the values were obtained:
[1] = tested on: TF-1 cells; experiment: TF-1 cell proliferation assay; format: cell-based, human
Procedure: The murine hematopoietic cell line Baf3 was maintained in RPMI 1640 medium supplemented with 10% fetal calf serum (FCS) and murine IL-3 (20 units/ml) as described previously in Damen et al., J. Biol. Chem. 270, 23402 (1995). Human myeloid cell line TF-1 was maintained in RPMI 1640 supplemented with 10% FCS and 40 ng/ml of recombinant human GM-CSF as described previously in Thomassen et al., Clin. Immunol. 95, 85 (2000). For cell proliferation assays, cells were washed in 10% FCS medium twice, resuspended in 10% FCS medium, incubated at 37° C. for 16 hours, and then cultured at 37° C. in 10% FCS medium containing various amounts of cytokines, sodium stibogluconate, or potassium antimonyl tartrate for 3-6 days as indicated. The cell numbers in proliferation assays were determined by an MTT assay or by microscopic cell counting as indicated.

[2] = target: T1, intracellular Flag-PRL-1 (Homo sapiens, UniProt Q93096); experiment: Immunocomplex PTPase assay, Flag-PRL-1 NIH3T3 transfectants; format: cell-based; conditions: cells treated 5 min
T1 construct: expressed in transfected cells
T1 sequence (Q93096 whole entry): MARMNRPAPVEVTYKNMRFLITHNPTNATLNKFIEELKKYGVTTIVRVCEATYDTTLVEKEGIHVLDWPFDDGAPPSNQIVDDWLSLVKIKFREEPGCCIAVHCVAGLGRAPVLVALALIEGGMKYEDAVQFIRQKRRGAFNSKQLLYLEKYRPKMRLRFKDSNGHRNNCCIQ
Procedure: Immunocomplex PTPase assays were performed to assess the effects of sodium stibogluconate on intracellular PTPases. Cells were untreated or treated with sodium stibogluconate for 5 minutes, washed with fresh medium and then lysed in cold lysis buffer (50 mM Tris, pH 7.4; 150 mM NaCl; 1% NP40; 2 mM PMSF; 20 μg/ml of Aprotinin). The lysates were incubated with an anti-Flag antibody in immunoprecipitation assays. The immunocomplexes were collected with protein G sepharose beads (Pharmacia) and washed in cold lysis buffer for 4 times. […] C. for 18 hrs. 100 µL of malachite green solution (UBI) was added to each reaction prior to measurement of OD660 to quantify the amounts of free phosphate cleaved by the PTPases from the peptide substrate (Pathak et al., J. Imumol. 167, 3391 (2001)). The remaining 10% contents of individual samples were analyzed by SDS-PAGE/Western blotting to quantify the relative amounts of the phosphatase proteins. […]
(§1) The effects of sodium stibogluconate on intracellular PTPases were assessed using NIH3T3 or WM9 transfectants. […]

[3] = Toxicity in nude mice (viability, body weight); format: in vivo
Procedure: In light of the relatively rapid rate of clearance of the drug in vivo, 440 mg Sb/kg dosage was used to ensure the detection of the effectiveness of the drug for this initial study.
As discussed above, the dosage of sodium stibogluconate used for the treatment of nude mice was 12 mg Sb/mouse, s.c., daily (or approximately 440 mg/kg body weight). […] As an initial step to assess the toxicity of such a high dosage of sodium stibogluconate in nude mice, the effect of sodium stibogluconate on the viability and body weights of WM9 xenografts nude mice during the 25 day period of the study was determined.

[4] = tested on: WM9 transfectants (vector, PRL-1, PRL-1R86); experiment: Growth of WM9 transfectants, MTT assay; format: cell-based, human; conditions: 50 or 100 μg/ml
Procedure: NIH3T3 (Yi, et al., Blood 85, 87 (1995)), WM9 (Forsberg, et al., Proc. Nat. Acad. Sci. USA 90, 393 (1993)), DU145 (Mickey, et al., Cancer Res. 37, 4049 (1977)), LoVo (Drewinko, et al., Cancer Res. 36, 467 (1976)), HEY (Buick, et al., Cancer Res. 45, 3668 (1985)), U251 (Yoshida, et al., Cancer 50, 410 (1982)), A549 (Giard, et al., J. Natl. Cancer Inst. 51, 1417 (1973)) and SK-N-SH (Helson, et al., Cancer Res. 35, 2594 (1975)) cell lines have been described and were cultured in RPMI 1640 supplemented with 10% fetal calf serum (FCS). For measurement of sodium stibogluconate effects on cell growth in vitro, cells were cultured in the absence (−) or presence (+) of various amounts of sodium stibogluconate for 6 days with viable cells quantified by MTT assays (Mosmann, J. Immunol. Methods 65, 55 (1983)). Percentages of growth inhibition by sodium stibogluconate were calculated (.+−.x %).
as §1
To further assess whether expression of the PRL-1R86 mutant affects sodium stibogluconate-induced growth inhibition, the transfectants were cultured in the absence or presence of sodium stibogluconate for 6 days with viable cells determined by MTT assays. […]

[5] = tested on: U266 cells; experiment: U266 multiple myeloma cell growth, MTT assay; format: cell-based, human; conditions: day 6
Procedure: For cell proliferation assays, cells were grown in 10% FCS culture medium containing various amounts of IFNs and/or sodium stibogluconate in 96 well plates and cultured at 37° C. for 3 or 6 days as indicated. The numbers of viable cells in proliferation assays were determined by MTT assays as described in Phatak et al., J. Immunol. 167, 3391 (2001).

O.O.O.O.O.O.O.O.O.O=C([O-])[C@@H]1[O][Sb]2([O-])([O][Sb]34([OH])[O][C@H]([C@H](O)CO)[C@H]([O]3)[C@H](C(=O)[O-])[O]4)[O][C@H]([C@H](O)CO)[C@@H]1[O]2.[Na+].[Na+].[Na+] [sodium stibogluconate]
GM-CSF-induced proliferation of TF-1 cells ([1]; 50 μg/ml, GM-CSF 5-40 ng/ml): augmented | effect on GM-CSF-induced cell growth ([1]; low doses 12.5-50 μg/ml): no negative effect | PTPase activity of immunocomplexes from treated Flag-PRL-1 transfectants [2]: little PTPase activities | tolerability ([3]; 12 mg Sb daily (440 mg Sb/kg daily)): well tolerated with no serious side effects | tolerated daily dose in mice, pilot study ([3]; approximately 700-800 mg Sb/kg): 20 mg Sb | survival of WM9-inoculated nude mice ([3]; day 25): survived until the end of the study | growth inhibition of R86 cells [4]: only modest growth inhibition | growth inhibition of U266 cells by the drug by itself [5]: substantial growth inhibition activity
